Assay results taken from the NIST ThermoML archive (doi:10.1021/je301283e).
± gives the expanded uncertainty stated by the source.

Settings: Vibrating tube method

O=C=O [carbon dioxide]
mass density [kg/m3], Fluid (supercritical or subcritical phases)
Settings	313.15 K	333.15 K	353.15 K	373.15 K	393.15 K
340 kPa	8.2 ± 1.4	7.7 ± 1.4	7.4 ± 1.4	6.5 ± 1.4	5.7 ± 1.4
690 kPa	15.1 ± 1.4	13.4 ± 1.4	13.5 ± 1.4	10.9 ± 1.4	9.5 ± 1.4
1030 kPa	21.4 ± 1.4	19.9 ± 1.4	18.8 ± 1.4	17.1 ± 1.4	16.3 ± 1.4
1380 kPa	26.7 ± 1.4	25.1 ± 1.4	24.6 ± 1.4	23.2 ± 1.4	22.1 ± 1.4
1720 kPa	34.2 ± 1.4	31.9 ± 1.4	31.4 ± 1.4	28.6 ± 1.4	26.9 ± 1.4
2070 kPa	38.6 ± 1.4	38.4 ± 1.4	36.1 ± 1.4	32.7 ± 1.4	32 ± 1.4
2410 kPa	48.4 ± 1.4	44.1 ± 1.4	41.9 ± 1.4	39.2 ± 1.4	37 ± 1.4
2760 kPa	56.7 ± 1.4	51.2 ± 1.4	48 ± 1.4	44.8 ± 1.4	–
3100 kPa	64.1 ± 1.4	59.1 ± 1.4	54.1 ± 1.4	50.3 ± 1.4	47.4 ± 1.4
3450 kPa	72.9 ± 1.4	65.1 ± 1.4	61.4 ± 1.4	56.1 ± 1.4	52.9 ± 1.4
3800 kPa	80.9 ± 1.4	73.1 ± 1.4	67.2 ± 1.4	63.2 ± 1.4	58.2 ± 1.4
4140 kPa	87.5 ± 1.4	79.7 ± 1.4	73.8 ± 1.4	67.9 ± 1.4	63.6 ± 1.4
4480 kPa	99.4 ± 1.4	87.9 ± 1.4	80.5 ± 1.4	73.1 ± 1.4	69.2 ± 1.4
4830 kPa	109.8 ± 1.4	96.5 ± 1.4	88 ± 1.4	80 ± 1.4	74.7 ± 1.4
5170 kPa	122 ± 1.4	105.1 ± 1.4	94.9 ± 1.4	86.2 ± 1.4	80.4 ± 1.4
5510 kPa	134 ± 1.4	114.2 ± 1.4	102.4 ± 1.4	93 ± 1.4	86.2 ± 1.4
5860 kPa	145.4 ± 1.4	123.8 ± 1.4	110.2 ± 1.4	99.2 ± 1.4	92.4 ± 1.4
6200 kPa	158 ± 1.5	133.4 ± 1.4	118 ± 1.4	106 ± 1.4	98.1 ± 1.4
6550 kPa	175.1 ± 1.5	144.2 ± 1.4	126.2 ± 1.4	112.9 ± 1.4	104.7 ± 1.4
6890 kPa	194.5 ± 1.5	154.3 ± 1.5	134.4 ± 1.4	120 ± 1.4	110.5 ± 1.4
7240 kPa	218.9 ± 1.6	166.4 ± 1.5	143.4 ± 1.4	127 ± 1.4	113.6 ± 1.4
7580 kPa	239.9 ± 1.7	178.8 ± 1.5	152.1 ± 1.4	135.4 ± 1.4	123.1 ± 1.4
7930 kPa	272.8 ± 1.9	190.1 ± 1.5	161.4 ± 1.4	143.1 ± 1.4	129.9 ± 1.4
8270 kPa	315.6 ± 2.3	205.2 ± 1.6	171.1 ± 1.5	151.1 ± 1.4	136.2 ± 1.4
8620 kPa	383.1 ± 3	219.5 ± 1.8	180.8 ± 1.5	158.1 ± 1.4	142.9 ± 1.4
8960 kPa	478.5 ± 3.5	235.1 ± 2.1	191.1 ± 1.5	166.1 ± 1.4	149.4 ± 1.4
9310 kPa	554.1 ± 3.6	252.4 ± 2.3	201.8 ± 1.5	174.4 ± 1.4	156.2 ± 1.4
9650 kPa	599.1 ± 3.7	271 ± 2.5	211.9 ± 1.5	182.7 ± 1.5	163.2 ± 1.4
10000 kPa	630 ± 3.7	291.4 ± 2.6	223.5 ± 1.5	191.9 ± 1.5	170.4 ± 1.4
10340 kPa	649.1 ± 3.7	313.6 ± 2.6	235 ± 1.6	199.4 ± 1.5	176.4 ± 1.4
10690 kPa	667.8 ± 3.6	337 ± 2.7	247.4 ± 1.6	208.4 ± 1.5	183.2 ± 1.5
11030 kPa	682.9 ± 3.5	361.9 ± 2.7	259.8 ± 1.6	217.3 ± 1.5	191.1 ± 1.5
11380 kPa	696.2 ± 3.4	388 ± 2.7	272.4 ± 1.7	223.2 ± 1.5	198.2 ± 1.5
11720 kPa	708 ± 3.3	411.1 ± 2.7	283.9 ± 1.7	233.1 ± 1.5	203.9 ± 1.5
12070 kPa	718.3 ± 3.2	437.9 ± 2.7	298.3 ± 1.8	242.8 ± 1.5	210.8 ± 1.5
12410 kPa	727.4 ± 3	463.8 ± 2.7	312.1 ± 1.9	252.7 ± 1.5	218 ± 1.5
12750 kPa	737.3 ± 2.9	489.2 ± 2.7	328.4 ± 1.9	262.8 ± 1.6	226.3 ± 1.5
13100 kPa	744.1 ± 2.8	510.1 ± 2.6	342 ± 1.9	272.5 ± 1.6	234 ± 1.5
13440 kPa	751 ± 3	530.7 ± 2.6	356.7 ± 2	283.1 ± 1.6	242.1 ± 1.5
13790 kPa	757.9 ± 2.5	549.9 ± 2.5	372.8 ± 2	293.1 ± 1.6	250.9 ± 1.5
14130 kPa	765.3 ± 2.4	567.7 ± 2.5	388.6 ± 2	304.7 ± 1.6	258 ± 1.5
14480 kPa	770 ± 2.4	582 ± 2.4	403 ± 2.1	314.9 ± 1.6	266.4 ± 1.5
14820 kPa	775.9 ± 2.3	596 ± 2.4	417.8 ± 2.1	325 ± 1.7	275 ± 1.6
15160 kPa	781.5 ± 2.2	609.4 ± 2.3	433 ± 2.1	336.1 ± 1.7	283.9 ± 1.6
15510 kPa	786.4 ± 2.2	621 ± 2.3	447.5 ± 2.1	347.6 ± 1.7	291.1 ± 1.6
15860 kPa	791.7 ± 2.2	627.4 ± 2.3	461 ± 2.1	358.1 ± 1.7	300.7 ± 1.6
16200 kPa	796.1 ± 2.1	642.1 ± 2.2	475 ± 2.1	368.7 ± 1.7	308.4 ± 1.6
16550 kPa	801.2 ± 2.1	651.8 ± 2.2	488.1 ± 2.1	379.8 ± 1.8	316.8 ± 1.6
16900 kPa	805.8 ± 2	661.7 ± 2.1	501 ± 2.1	390.2 ± 1.8	325.1 ± 1.6
17240 kPa	809.8 ± 2	669.7 ± 2.1	513 ± 2.4	400.4 ± 2.1	333.1 ± 1.6

CCCCCCC [heptane]
mass density [kg/m3], Liquid
Settings	313.15 K	333.15 K	353.15 K	373.15 K	393.15 K
340 kPa	667.1 ± 1.4	649.7 ± 1.4	631.8 ± 1.4	613.1 ± 1.4	593.4 ± 1.4
690 kPa	667.5 ± 1.4	650.2 ± 1.4	632.3 ± 1.4	613.7 ± 1.4	594.1 ± 1.4
1030 kPa	667.8 ± 1.4	650.6 ± 1.4	632.8 ± 1.4	614.3 ± 1.4	594.9 ± 1.4
1380 kPa	668.2 ± 1.4	651 ± 1.4	633.3 ± 1.4	614.9 ± 1.4	595.6 ± 1.4
1720 kPa	668.64 ± 1.4	651.4 ± 1.4	633.9 ± 1.4	615.5 ± 1.4	596.3 ± 1.4
2070 kPa	669 ± 1.4	651.9 ± 1.4	634.4 ± 1.4	616.1 ± 1.4	597 ± 1.4
2410 kPa	669.3 ± 1.4	652.3 ± 1.4	634.9 ± 1.4	616.7 ± 1.4	597.8 ± 1.4
2760 kPa	669.8 ± 1.4	652.7 ± 1.4	635.3 ± 1.4	617.3 ± 1.4	598.5 ± 1.4
3100 kPa	670.1 ± 1.4	653.2 ± 1.4	635.8 ± 1.4	618.2 ± 1.4	599.2 ± 1.4
3450 kPa	670.4 ± 1.4	653.6 ± 1.4	636.3 ± 1.4	618.5 ± 1.4	599.9 ± 1.4
3800 kPa	670.8 ± 1.4	654 ± 1.4	636.8 ± 1.4	619 ± 1.4	600.5 ± 1.4
4140 kPa	671.2 ± 1.4	654.4 ± 1.4	637.3 ± 1.4	619.6 ± 1.4	601.2 ± 1.4
4480 kPa	671.6 ± 1.4	654.8 ± 1.4	637.7 ± 1.4	620.2 ± 1.4	601.9 ± 1.4
4830 kPa	671.9 ± 1.4	655.2 ± 1.4	638.2 ± 1.4	620.7 ± 1.4	602.5 ± 1.4
5170 kPa	672.2 ± 1.4	655.6 ± 1.4	638.7 ± 1.4	621.2 ± 1.4	603.2 ± 1.4
5510 kPa	672.6 ± 1.4	656 ± 1.4	639.2 ± 1.4	621.8 ± 1.4	603.8 ± 1.4
5860 kPa	672.9 ± 1.4	656.4 ± 1.4	639.6 ± 1.4	622.3 ± 1.4	604.4 ± 1.4
6200 kPa	673.3 ± 1.4	656.8 ± 1.4	640.1 ± 1.4	622.9 ± 1.4	605.1 ± 1.4
6550 kPa	673.6 ± 1.4	657.2 ± 1.4	640.6 ± 1.4	623.4 ± 1.4	605.7 ± 1.4
6890 kPa	674 ± 2	657.6 ± 1.4	641 ± 1.4	623.9 ± 1.4	606.3 ± 1.5
7240 kPa	674.3 ± 1.4	658 ± 1.4	641.5 ± 1.4	624.4 ± 1.4	606.9 ± 1.5
7580 kPa	–	658.4 ± 1.4	641.9 ± 1.4	625 ± 1.5	607.5 ± 1.5
7930 kPa	–	658.8 ± 1.4	642.3 ± 1.4	625.5 ± 1.5	608.1 ± 1.5
8270 kPa	–	659.2 ± 1.4	642.8 ± 1.4	626 ± 1.5	608.7 ± 1.5
8620 kPa	–	–	643.2 ± 1.5	626.5 ± 1.5	609.3 ± 1.5
8960 kPa	–	–	643.9 ± 1.5	627 ± 1.5	609.9 ± 1.5
9310 kPa	–	–	644.1 ± 1.5	627.5 ± 1.5	610.8 ± 1.5
9650 kPa	–	–	644.5 ± 1.5	628 ± 1.5	611.1 ± 1.5
